Data: patent US9850293B2, “Targeting trastuzumab-resistant HER2+ breast cancer with a HER3-targeting nanoparticle” (priority 2014, dated 2017)
Entries after “also recorded” stand apart in the source; their conditions may differ.

How the values were obtained:
[1] = system: human cardiosphere-derived cells (CDCs); assay: Human CDC viability; conditions: escalating concentrations, 48 hour exposure
Protocol: Control groups received saline or HerPBK10 at equivalent concentration to HerMn. Treatments began at ˜200 mm^3 average tumor volume. Tumor volumes were measured before (day 1), during (day 3), and after (days 8, 15, and 22) injections of reagents. N=8-10 tumors/group. *p<0.05 (one-way ANOVA). […] N=3 per conc, from 3 separate experiments.
To assess translatability, the viability of human cardiosphere-derived cells (CDCs) in the presence of HerGa and/or HerMn was examined.

[2] = system: primary tumor cells from a surgical specimen of a HER2+ patient; assay: Binding to primary human tumor cells; conditions: elevated HER3, very low HER2
Protocol: (§1) N=3. *, p<0.05 compared to parental. […] N=3. *, p<0.05 compared to parental.
(§2) Parental lines were exposed to Tz for 24 hours and then measured cell surface HER3 levels in comparison to non-treated parental cells. […] As a means of evaluating whether the nanoparticles described herein are capable of recognizing HER3 on human tissue, breast tumor tissue was obtained from a surgical specimen of a HER2+ patient and examined whether HerPBK10 could bind this tissue via HER3.

[3] = target: T1, HER3 (human ErbB3 extracellular domain) (Homo sapiens, UniProt P21860); assay: ELISA of HerPBK10 binding to immobilized HER3
T1 construct: immobilized peptide containing the extracellular domain of human HER3; purchased Prospec
Source text: (§3) Un, no HerPBK10. […] HerPBK10 binding to HER3 is not inhibited by patient serum.
(§4) Binding was also not inhibited by a HER4 peptide or betacellulin (which blocks HER4) (FIG. 26-B).

[4] = system: MDA-MB-435 cells; assay: HerPBK10 binding to cells in human serum (ELISA); conditions: 1.2 μg/well, sera of 5 HER2+ patients and age-matched controls
Protocol: FIG. 16 illustrates HerPBK10 binding to MDA-MB-435 cells in human serum from HER2+ or HER2− breast cancer patients. Cells were treated with HerPBK10 (1.2 μg/well) in media containing human serum from each of 5 HER2+ breast cancer patients or age matched HER2− controls, both obtained pre-chemotherapy treatment. Cells were processed for ELISA using an antibody directed at HerPBK10. Control (C) wells receiving HerPBK10 in media containing bovine serum without or with 100× molar excess competitive ligand inhibitor (+Her) are indicated by open bars. Patient sera were provided by the WCRI tissue bank at Cedars-Sinai Medical Center. N=3 wells per treatment.
To determine whether HerPBK10 competes with circulating ligand that may be present in serum, the inventors tested HerPBK10 binding to HER2+ breast cancer cells in human serum obtained from HER2+ patients. The Women's Cancer Research Institute at Cedars-Sinai occasionally acquires limited quantities of patient serum, of which sera from HER2+ patients comprises an even smaller minority. […] Here, the inventors replaced the bovine serum in the routine culturing media with the human serum obtained from the acquired patient samples to assess whether the human serum, especially from HER2+ patients, inhibits cell binding. […]

[5] = system: HER2+ cells; assay: ELISA of HerPBK10 binding to HER2+ cells with competitive inhibitors
Source text: as §3, §4

[6] = system: HER2+ MDA-MB-435 cells; assay: Cell uptake (fluorescence confocal microscopy); assay type: cell-based, human; conditions: after cell surface clustering
Protocol: (§5) (A) compares biodistribution and intracellular trafficking of HerPBK10 and Tz.
The uptake in HER2+ MDA-MB-435 cells were also evaluated.

[7] = system: HER3 on 4T1 mouse mammary tumor cells; assay: Binding of HerPBK10 to mouse mammary tumor cells
Source text: (A) is an amino acid sequence alignment of domains I-II (heregulin-binding domain) of human (SEQ ID NO:13) and mouse HER3 (SEQ ID NO:14). (B) compares relative HER3 levels on different cell lines, detected by ELISA (without permeabilization) using an anti-HER3 antibody that cross-reacts with both human and mouse HER3 (1B2E; Cell Signaling Technologies). […] N=3. *, p<0.05 compared to HerPBK10 alone.
Mouse 4T1 cells, obtained from a BALB/c mouse mammary tumor, are triple-negative and have been used as a syngeneic TNBC model in BALB/c mice. […] The receptor-specific binding of HerPBK10 to mouse HER3 reflects the high level of amino acid sequence identity between mouse and human HER3: 91% identity for the entire protein and 94% in the heregulin-binding region (extracellular domains I and II) (FIG. 32-A). […] Importantly, human BT-549 cells, which are also derived from a TNBC, display elevated HER3 on the cell surface (FIG. 32-B) and provide an additional TNBC cell line to target.

[8] = Neutralizing antibody formation after repeat dosing; assay type: in vivo, mouse; conditions: repeat dosing at therapeutic and 10-fold higher levels, immunocompetent mice
Source text: Therefore, receptor binding is not inhibited by patient sera.

[9] = system: HER2+ tumors (MDA-MB-435); assay: In vivo tumor toxicity (tumor growth); set-up: species or system mouse; conditions: 0.004 mg/kg with respect to Dox, daily tail vein injections for 7 days
[10] = system: MDA-MB-435 (HER2+); assay: Targeted toxicity, cell survival by MTT assay; assay type: cell-based, human; conditions: Dox 0.5 μM; HerPBK10 0.1 μM; day 3
Protocol: (§6) FIG. 7 illustrates targeted toxicity. […] Cell titer was determined by metabolic (i.e. MTT) assay. FIG. 7 upper panel illustrates the effect of HerDox on MDA-MB-231 (HER2−) and MDA-MB-435 (HER2+) cell survival. Relative surviving cell numbers are represented as a % of corresponding untreated cells. […] Relative survival (as % of untreated cells) is shown for Day 3 of treatment.
FIG. 8 illustrates receptor specificity. MDA-MB-435 (HER2+) cells were incubated with free ligand (eHRG) at 10× molar excess of HerDox for one hour at 4° C. Media was aspirated to remove free eHRG and fresh media containing HerDox (0.5 μM) was added to cells. Cell survival was measured by MTT assay and represented as a % of relative untreated cell numbers.
(§7) N=3. […] Bar, about 4 μm. […] (E) compares HerDox and Dox on off-target tissue. […] Green fluorescence in nuclei indicates apoptosis (positive TUNEL stain).
(§8) By three days, HerDox reduced HER2+ cell numbers by over 75% whereas HER2− cell survival was unaffected (FIG. 7). […] These findings emphasize the importance of targeting by showing that the untargeted drug affects nontarget (i.e. HER2−) cells. […] To test receptor targeting, the inventors used free heregulin ligand (Her or eHRG) as a competitive inhibitor. […] As a final in vitro challenge, the inventors tested whether HerDox induces toxicity specifically to HER2+ cells in a mixed culture of HER2+ and HER2− breast cancer cells. To do this, the inventors produced a HER2− cell line tagged with green fluorescent protein (GFP) for cell identification in the mixed culture (FIG. 9-A). […] Altogether, these findings indicate that HerDox has the capacity to preferentially target toxicity to HER2+ cells. […] In serum-containing media, no such loss from HerDox is detectable. […] Co-migration of HerPBK10 bands further verified that the conjugates remained intact in the cell media.

[11] = system: MDA-MB-231 (HER2−); assay: Targeted toxicity, cell survival by MTT assay; assay type: cell-based, human; conditions: 0.5 μM with respect to Dox; HerPBK10 0.1 μM; day 3
Protocol: as §6, §7, §8

[12] = system: HER3 on parental cell lines (BT474 and SKBR3); assay: Tz pre-treatment: cell surface HER3 and HerPBK10 binding; assay type: cell-based, human; conditions: 0.5 mg/mL Tz for 24 hours
Protocol: N=3. […] N=3. […] N=3. […] N=3. […] N=3. […] N=3.
as §1
The parental and resistant cell lines were pretreated with Tz for 4 or 24 hours before HerDox treatment.
as §2

[13] = system: HER2+ tumor; assay: Biodistribution of labeled HerPBK10, Tz and BSA; assay type: in vivo, mouse; conditions: tail vein, four hours after injection
Protocol: as §5
Fluorescently-labeled HerPBK10 was prepared to assess its bio-distribution and cell uptake in comparison to labeled Tz. Equivalent doses of each reagent were injected into the tail veins of HER2+ tumor bearing mice. Tissues were harvested at four hours after injection for imaging. Both reagents were compared to a labeled non-targeted protein, BSA.

Substance: HerPBK10: receptor binding domain of heregulin fused to adenovirus penton base protein modified by a C-terminal decalysine
- effect on CDC viability [1]: no detectable effect on CDC viability
- binding to disaggregated patient tumor cells [2]: exhibiting greater binding than Tz; also recorded: showing greater binding than Tz
- binding to immobilized HER3 after pre-adsorption with free HER3 peptide [3]: inhibited by pre-adsorption of HerPBK10 with free HER3 peptide
- binding to immobilized HER3 peptide [3]: binds to an immobilized peptide containing the extracellular domain of human HER3
- cell binding in serum from HER2+ patients, HER2− patients or bovine serum [4]: no significant differences; also recorded: did not prevent HerPBK10 binding
- binding to HER2+ cells with pertuzumab (Pz) [5]: did not prevent HerPBK10 binding
- binding to HER2+ cells after pre-adsorption with free HER3 peptide ([5]; 1× and 10× molar ratio): also inhibited HerPBK10 binding
- binding to HER2+ cells with HER4 peptide or betacellulin ([5]; betacellulin 10 μg/mL): not inhibited
- time to significant endocytosis [6]: ≤ 45 min
- binding to 4T1 cells with human HER3 peptide [7]: competitively inhibited by human HER3 peptide
- recognition of HER3 on 4T1 cells [7]: is recognized by HerPBK10
- neutralizing antibody formation against the protein [8]: did not yield detectable neutralizing antibody formation
- effect on tumor growth [9]: had no effect
- effect on HER2+ cell survival [10]: had no effect on either cell line; also recorded: does not induce cell death
- effect on HER2− cell survival [11]: had no effect on either cell line
- HerPBK10 binding to Tz pre-treated parental cells [12]: augments HerPBK10 binding; also recorded: proportionately increased
- delivery to the heart, spleen, and muscle [13]: nearly absent delivery
- lung delivery [13]: no lung delivery
- tumor accumulation [13]: equivalent levels of tumor accumulation
